From the supplement of paper PMC11061612

Assays:
Test in all cases: Bliss excess, mean over the matrix (fraction); higher = more synergy
[1] = tested on: COLO-678 (Colorectal Carcinoma)
Outline: (§1)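 Cell lines in DMEM/F12 or RPMI with 10% FBS were plated in 1536-well plates, held 24 hours at 37°C, 5% CO2, then given two-drug dose matrices for 72 hours (DMSO typically 0.2%). Viability was read by CellTiter-Glo 2.0 luminescence and scaled as inhibition from 0 (vehicle wells) to 1 (blank wells). Combination Emax is the second-highest inhibition in the matrix; Bliss excess is observed combination effect minus expected EA + EB − EA·EB, EA and EB being single-agent effects.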

[2] = tested on: ES1 (Ewing's Sarcoma)
Outline: as §1

[3] = tested on: KCL-22 (Chronic Myelogenous Leukemia)
Outline: as §1

[4] = tested on: SR (Other Blood Carcinomas)
Outline: as §1

[5] = tested on: MFM-223 (Breast Carcinoma)
Outline: as §1

[6] = tested on: MOLT-16 (T-Lymphoblastic Leukemia)
Outline: as §1

[7] = tested on: MS751 (Cervical Carcinoma)
Outline: as §1

[8] = tested on: HL-60 (Acute Myeloid Leukemia)
Outline: as §1

[9] = tested on: BL-41 (Burkitt's Lymphoma)
Outline: as §1

[10] = tested on: U251 (Low Grade Glioma)
Outline: as §1

[11] = tested on: NCI-H2818 (Mesothelioma)
Outline: as §1

[12] = tested on: KYSE-180 (Esophageal Squamous Cell Carcinoma)
Outline: as §1

[13] = tested on: DiFi (Colorectal Carcinoma)
Outline: as §1

[14] = tested on: SU-DHL-8 (B-Cell Non-Hodgkin's Lymphoma)
Outline: as §1

[15] = tested on: ES8 (Ewing's Sarcoma)
Outline: as §1

[16] = tested on: CHP-212 (Neuroblastoma)
Outline: as §1

[17] = tested on: LN-18 (Glioblastoma)
Outline: as §1

[18] = tested on: WM-115 (Melanoma)
Outline: as §1

[19] = tested on: PANC-08-13 (Pancreatic Carcinoma)
Outline: as §1

Compound	Bliss excess [1]	Bliss excess [2]	Bliss excess [3]	Bliss excess [4]	Bliss excess [5]	Bliss excess [6]	Bliss excess [7]	Bliss excess [8]	Bliss excess [9]	Bliss excess [10]	Bliss excess [11]	Bliss excess [12]	Bliss excess [13]	Bliss excess [14]	Bliss excess [15]	Bliss excess [16]	Bliss excess [17]	Bliss excess [18]	Bliss excess [19]
COc1cccc(OCCCN)c1-c1cc(Nc2cnc(C#N)cn2)n[nH]1 [Prexasertib] + C=CCn1c(=O)c2cnc(Nc3ccc(N4CCN(C)CC4)cc3)nc2n1-c1cccc(C(C)(C)O)n1 [AZD1775] (first compound max 1 µM, partner max 1 µM)	-0.0079	0.0948	0.088	-0.014	0.0825	0.0716	0.0653	0.0981	0.0467	0.0943	-0.0212	0.132	0.0236	-0.0202	0.0633	-0.0368	0.042	0.0354	-0.0174
C=CCn1c(=O)c2cnc(Nc3ccc(N4CCN(C)CC4)cc3)nc2n1-c1cccc(C(C)(C)O)n1 [AZD1775] + C[C@@H]1COCCN1C2=NC(=NC(=C2)C3(CC3)[S@](=N)(=O)C)C4=C5C=CNC5=NC=C4 [AZD6738] (first compound max 1 µM, partner max 10 µM)	-0.028	0.0487	0.0331	0.0174	0.0412	0.0101	0.0075	0.0975	0.0369	0.0604	-0.0577	0.0869	0.0242	-0.0202	0.0178	-0.0567	0.086	-0.0523	-0.0203
Cc1cc2ncnn2cc1Nc1ncc2c(n1)n(C1CCOCC1)c(=O)n2C [AZD7648] + CN(C)CCCOc1ccc(-c2ccc3ncc4c(c3c2)n(C2CCOCC2)c(=O)n4C)cn1 [AZD0156] (first compound max 10 µM, 7x7, partner max 1 µM)	-0.0231	0.0136	0.0542	0.0078	-0.0325	0.0841	0.0217	0.0176	0.0154	0.0214	-0.0055	0.0126	-0.0119	0.016	0.0803	0.0036	0.0013	-0.0098	-0.0359
COc1cccc(OCCCN)c1-c1cc(Nc2cnc(C#N)cn2)n[nH]1 [Prexasertib] + O=C(c1cc(Cc2n[nH]c(=O)c3ccccc23)ccc1F)N1CCN(C(=O)C2CC2)CC1 [Olaparib] (first compound max 1 µM, 7x7, partner max 10 µM)	-0.0157	-0.0161	-0.0599	0.0119	-0.124	-0.0198	0.034	-0.0781	-0.0346	0.0369	-0.0136	-0.0371	-0.0265	-0.0668	-0.066	-0.0592	-0.0368	-0.0557	-0.076
COc1cccc(OCCCN)c1-c1cc(Nc2cnc(C#N)cn2)n[nH]1 [Prexasertib] + CN(C)CCCOc1ccc(-c2ccc3ncc4c(c3c2)n(C2CCOCC2)c(=O)n4C)cn1 [AZD0156] (first compound max 1 µM, 7x7, partner max 1 µM)	-0.036	0.0127	-0.0021	-0.0266	-0.0028	0.05	0.02	-0.0026	-0.0134	-0.0092	-0.0871	0.0022	-0.0503	-0.0553	-0.011	-0.0377	0.0304	-0.0035	-0.027
COc1cccc(OCCCN)c1-c1cc(Nc2cnc(C#N)cn2)n[nH]1 [Prexasertib] + C[C@@H]1COCCN1C2=NC(=NC(=C2)C3(CC3)[S@](=N)(=O)C)C4=C5C=CNC5=NC=C4 [AZD6738] (first compound max 1 µM, 7x7, partner max 10 µM)	-0.0346	-0.0142	-0.0302	-0.0164	-0.106	0.0291	0.0539	-0.0289	-0.0066	-0.0193	-0.0168	-0.0702	-0.0794	-0.0214	-0.0371	-0.0776	0.0188	0.0242	-0.0421
CCN(CCO)CCCOc1ccc2c(Nc3cc(CC(=O)Nc4cccc(F)c4)[nH]n3)ncnc2c1 [AZD2811] + C[C@@H]1COCCN1C2=NC(=NC(=C2)C3(CC3)[S@](=N)(=O)C)C4=C5C=CNC5=NC=C4 [AZD6738] (first compound max 1 µM, 7x7, partner max 10 µM)	-0.0034	0.0413	0.0285	-0.0533	-0.0251	-0.0021	0.041	-0.0776	-0.0647	-0.0255	-0.0925	-0.0184	-0.0331	0.134	-0.0554	-0.0822	-0.0151	-0.0345	-0.0312
CN(C)CCCOc1ccc(-c2ccc3ncc4c(c3c2)n(C2CCOCC2)c(=O)n4C)cn1 [AZD0156] + CCN(CCO)CCCOc1ccc2c(Nc3cc(CC(=O)Nc4cccc(F)c4)[nH]n3)ncnc2c1 [AZD2811] (first compound max 1 µM, 7x7, partner max 1 µM)	-0.0179	0.148	0.0703	-0.0666	0.0113	-0.0087	-0.0235	-0.0762	0.0177	0.0131	-0.0491	-0.0153	-0.0363	0.0377	-0.0153	-0.0254	0.0009	-0.0368	-0.0461
CCc1c2c(nc3ccc(O)cc13)-c1cc3c(c(=O)n1C2)COC(=O)[C@]3(O)CC [SN-38] + CN(C)CCCOc1ccc(-c2ccc3ncc4c(c3c2)n(C2CCOCC2)c(=O)n4C)cn1 [AZD0156] (first compound max 0.3 µM, 7x7, partner max 1 µM)	-0.0558	0.0784	0.0872	0.0878	-0.0144	0.0538	0.0355	0.115	0.0556	-0.0239	0.015	0.0421	0.0735	-0.059	0.0458	0.0143	0.0759	-0.0408	-0.0316
CCN(CCO)CCCOc1ccc2c(Nc3cc(CC(=O)Nc4cccc(F)c4)[nH]n3)ncnc2c1 [AZD2811] + O=C(c1cc(Cc2n[nH]c(=O)c3ccccc23)ccc1F)N1CCN(C(=O)C2CC2)CC1 [Olaparib] (first compound max 1 µM, 7x7, partner max 10 µM)	-0.0223	0.0749	0.0534	-0.0064	0.0058	0.0395	-0.0068	-0.082	-0.121	0.0281	-0.0415	0.0207	-0.0153	0.102	-0.0296	-0.0249	-0.0299	-0.0343	-0.0087
CN(C)CCCOc1ccc(-c2ccc3ncc4c(c3c2)n(C2CCOCC2)c(=O)n4C)cn1 [AZD0156] + C[C@@H]1COCCN1C2=NC(=NC(=C2)C3(CC3)[S@](=N)(=O)C)C4=C5C=CNC5=NC=C4 [AZD6738] (first compound max 1 µM, 7x7, partner max 10 µM)	-0.0169	0.0554	0.0274	0.015	0.0432	-0.0399	-0.0221	-0.0159	0.0704	-0.0087	-0.0511	0.0762	0.0174	0.0169	0.0169	-0.0047	0.0505	-0.0565	-0.0376
COc1cccc2c1C(=O)c1c(O)c3c(c(O)c1C2=O)C[C@@](O)(C(=O)CO)C[C@@H]3O[C@H]1C[C@H](N)[C@H](O)[C@H](C)O1 [Doxorubicin] + Cc1cc2ncnn2cc1Nc1ncc2c(n1)n(C1CCOCC1)c(=O)n2C [AZD7648] (first compound max 1 µM, 7x7, partner max 10 µM)	0.0188	0.119	0.086	0.0651	0.0261	0.143	0.135	0.108	0.0714	0.0913	-0.0019	0.0587	0.051	0.0145	0.125	0.0611	0.0386	-0.0234	-0.0102
Cc1cc2ncnn2cc1Nc1ncc2c(n1)n(C1CCOCC1)c(=O)n2C [AZD7648] + C=CCn1c(=O)c2cnc(Nc3ccc(N4CCN(C)CC4)cc3)nc2n1-c1cccc(C(C)(C)O)n1 [AZD1775] (first compound max 10 µM, partner max 1 µM)	-0.0224	0.0181	0.0015	-0.0375	-0.0357	0.0163	0.0245	-0.0457	-0.0511	-0.014	0.0563	0.0302	-0.0013	-0.0079	-0.0014	0.0249	0.0161	0.0217	-0.0266
Cc1cc2ncnn2cc1Nc1ncc2c(n1)n(C1CCOCC1)c(=O)n2C [AZD7648] + C[C@@H]1COCCN1C2=NC(=NC(=C2)C3(CC3)[S@](=N)(=O)C)C4=C5C=CNC5=NC=C4 [AZD6738] (first compound max 10 µM, 7x7, partner max 10 µM)	-0.0346	-0.0001	0.0341	0.0148	-0.0127	-0.0368	0.0606	-0.0079	-0.0052	0.0581	0.0738	0.0394	0.0639	-0.0136	0.0071	-0.0035	-0.0084	0.0145	0.0227
CCN(CCO)CCCOc1ccc2c(Nc3cc(CC(=O)Nc4cccc(F)c4)[nH]n3)ncnc2c1 [AZD2811] + C=CCn1c(=O)c2cnc(Nc3ccc(N4CCN(C)CC4)cc3)nc2n1-c1cccc(C(C)(C)O)n1 [AZD1775] (first compound max 1 µM, partner max 1 µM)	-0.0002	0.16	0.0162	-0.0146	0.0277	-0.0255	0.0461	-0.0445	0.0862	-0.0117	-0.0461	0.0089	0.0322	0.0945	-0.0218	-0.0625	0.0214	-0.0562	-0.0319
CCc1c2c(nc3ccc(O)cc13)-c1cc3c(c(=O)n1C2)COC(=O)[C@]3(O)CC [SN-38] + O=C(c1cc(Cc2n[nH]c(=O)c3ccccc23)ccc1F)N1CCN(C(=O)C2CC2)CC1 [Olaparib] (first compound max 0.3 µM, 7x7, partner max 10 µM)	0.0487	0.0779	0.0525	0.0614	0.0054	–	0.053	–	0.0462	–	0.0548	0.0458	0.0423	–	0.0636	–	–	0.0847	-0.0202
